Results taken from PMC8658889, “Seriniquinones as Therapeutic Leads for Treatment of BRAF and NRAS Mutant Melanomas” (Molecules, 2021).

Tests used:
501mel = test: MTT cytotoxicity assay; type: cell-based, Human; conditions: for IC50: Homo sapiens, 501mel, 72 h treatment, MTT
Text: (§1) Human cell lines were used throughout this program. SK-MEL-19 (melanoma BRAF^V600E, NRAS^WT), SK-MEL-28 (melanoma BRAF^V600E, NRAS^WT), SK-MEL-147 (melanoma BRAF^WT, NRAS^Q61R), MRC-5 (fibroblasts), and primary fibroblast (FDH) were kindly provided by Professor Glaucia Santelli (University of São Paulo, Brazil). MCF7 (breast adenocarcinoma, ATCC HTB-22), and HCT-116 (colorectal carcinoma, ATCC 247) cells were obtained from American Type Culture Collection (ATCC) and deposited in the Cell Bank of Rio de Janeiro, Brazil. WM293A (metastatic melanoma BRAF^V600D, NRAS^WT), 501mel (metastatic melanoma BRAF^V600E; NRAS^G12D), and MM200 (melanoma BRAF^V600E, NRAS^WT) were kindly provided by Professor Sharon Prince, University of Cape Town, South Africa. All human melanoma and breast cell lines were cultivated with Dulbecco’s Modified Eagle Medium: Nutrient Mixture F-12 (Thermo Fisher Scientific, San Jose, CA, USA). MM200 and HCT-116 were maintained with Roswell Park Memorial Institute (RPMI) medium (Thermo Fisher Scientific, San Jose, CA, USA). Unless stated otherwise, media was supplemented with 10% fetal bovine serum (FBS) and 1% penicillin-streptomycin (Thermo Fisher Scientific, San Jose, CA, USA). Cells were incubated with 5% CO2 at 37 °C. When required, cells were detached from flask using trypsin-EDTA 0.05% (Thermo Fisher Scientific, San Jose, CA, USA).
(§2) Cytotoxic activity was evaluated by the transformation of 3-(4,5-dimethylthiazol-2-yl)-2,5-diphenyltetrazolium bromide (MTT; Thermo Fisher Scientific, San Jose, CA, USA) into formazan by viable cells. Cells were plated in a 96-well plate (1 × 10^4 cells/well) and, 24 h later, exposed to serial dilutions of the test compounds (from 0.00032 to 5.0 µM) for 24, 48, and 72 h. For each analysis, negative controls received 0.5% DMSO and positive control was delivered by doxorubicin (DOX; 0.05 to 10.0 µM). At the end of the incubation periods, the medium was replaced with fresh medium containing 0.5 mg/mL of MTT and supernatant was removed 3 h later. The plates were dried at 50 °C for 30 min and formazan was solubilized in DMSO (150 µL/well) for the absorbance measure at 570 nm on a plate reader (Thermo Fisher Scientific, San Jose, CA, USA). IC50 values (half-maximal inhibitory concentration) along with 95% CI (confidence intervals) were calculated by non-linear regression using GraphPad Prism 8.0 software (GraphPad Software, Inc., San Diego, CA, USA).

FDH = test: MTT cytotoxicity assay; type: cell-based, Human; conditions: Homo sapiens, Fibroblast, 72 h, FDH primary fibroblasts, 72 h treatment
Text: as §1, §2

HCT-116 = test: MTT cytotoxicity assay; type: cell-based, Human; conditions: for IC50: Homo sapiens, HCT-116, 72 h treatment, MTT
Text: as §1, §2

MCF7 = test: MTT cytotoxicity assay; type: cell-based, Human; conditions: for IC50: Homo sapiens, MCF7, 72 h treatment, MTT
Text: as §1, §2

MM200 = test: MTT cytotoxicity assay; type: cell-based, Human; conditions: for IC50: Homo sapiens, MM200, 72 h treatment, MTT
Text: as §1, §2

SK-MEL-147 = test: MTT cytotoxicity assay; type: cell-based, Human; conditions: for IC50: Homo sapiens
Text: as §1, §2

SK-MEL-19 = test: MTT cytotoxicity assay; type: cell-based, Human; conditions: for IC50: Homo sapiens, SK-MEL19, SK-MEL-19, 72 h treatment, MTT
Text: as §1, §2

SK-MEL-28 = test: MTT cytotoxicity assay; type: cell-based, Human; conditions: for IC50: Homo sapiens
Text: as §1, §2

WM293A = test: MTT cytotoxicity assay; type: cell-based, Human; conditions: for IC50: Homo sapiens, WM293A, 72 h treatment, MTT
Text: as §1, §2

MRC-5 = test: MTT cytotoxicity assay; conditions: Homo sapiens, MRC5, 72 h
melanoma cells = test: MTT cytotoxicity assay, melanoma panel; type: cell-based, Human; conditions: SK-Mel cells versus non-tumor cell lines
Text: as §1, §2

[1] = 501mel versus FDH, 72-h IC50 ratio
[2] = 501mel versus MRC-5, 72-h IC50 ratio
[3] = HCT-116 versus FDH, 72-h IC50 ratio
[4] = HCT-116 versus MRC-5, 72-h IC50 ratio
[5] = MCF7 versus FDH, 72-h IC50 ratio
[6] = MCF7 versus MRC-5, 72-h IC50 ratio
[7] = MM200 versus FDH, 72-h IC50 ratio
[8] = MM200 versus MRC-5, 72-h IC50 ratio
[9] = SK-MEL-147, 72 h, SK-MEL-147, 72 h treatment, MTT
[10] = SK-MEL-147, SK-MEL-147, 24h treatment, 1h pre-treated with 30 nM bafilomycin A1
[11] = SK-MEL-147, SK-MEL-147, 24h treatment, 1h pre-treated with 20 µM Z-VAD-FMK
[12] = SK-MEL-147, SK-MEL-147, 24h treatment, no pre-treatment (Table S4)
[13] = SK-MEL-147 versus FDH, 72-h IC50 ratio
[14] = SK-MEL-147 versus MRC-5, 72-h IC50 ratio
[15] = SK-MEL-19 versus FDH, 72-h IC50 ratio
[16] = SK-MEL-19 versus MRC-5, 72-h IC50 ratio
[17] = SK-MEL-28, 72 h, SK-MEL-28, 72 h treatment, MTT
[18] = SK-MEL-28, SK-MEL-28, 24h treatment, 1h pre-treated with 30 nM bafilomycin A1
[19] = SK-MEL-28, SK-MEL-28, 24h treatment, 1h pre-treated with 20 µM Z-VAD-FMK
[20] = SK-MEL-28, SK-MEL-28, 24h treatment, no pre-treatment (Table S4)
[21] = SK-MEL-28 versus FDH, 72-h IC50 ratio
[22] = SK-MEL-28 versus MRC-5, 72-h IC50 ratio
[23] = WM293A versus FDH, 72-h IC50 ratio
[24] = WM293A versus MRC-5, 72-h IC50 ratio
[25] = MRC-5 non-tumor fibroblasts, 72 h treatment, MTT

| Compound | IC50 (501mel) [nM] | IC50 (FDH) [nM] | Selectivity Index (SI) (HCT-116; [3]) | Selectivity Index (SI) (HCT-116; [4]) | IC50 (HCT-116) [nM] | IC50 (MCF7) [nM] | Selectivity Index (SI) (MCF7; [5]) | Selectivity Index (SI) (MCF7; [6]) | Selectivity Index (SI) (MM200; [7]) | Selectivity Index (SI) (MM200; [8]) | IC50 (SK-MEL-147; [9]) [nM] | Selectivity Index (SI) (SK-MEL-147; [13]) | Selectivity Index (SI) (SK-MEL-147; [14]) | IC50 (SK-MEL-19) [nM] | Selectivity Index (SI) (SK-MEL-19; [15]) | Selectivity Index (SI) (SK-MEL-19; [16]) | IC50 (SK-MEL-28; [17]) [nM] | Selectivity Index (SI) (SK-MEL-28; [21]) | Selectivity Index (SI) (SK-MEL-28; [22]) | IC50 (WM293A) [nM] | also measured |
| --- | --- | --- | --- | --- | --- | --- | --- | --- | --- | --- | --- | --- | --- | --- | --- | --- | --- | --- | --- | --- | --- |
| COc1cccc2c1C(=O)c1c(O)c3c(c(O)c1C2=O)C[C@@](O)(C(=O)CO)C[C@@H]3O[C@H]1C[C@H](N)[C@H](O)[C@H](C)O1 [DOX, doxorubicin, reference compound] | 260 | 780 | 5.2 | 0.3 | 150 | 560 | 1.4 | 0.1 | 7.8 | 0.5 | 180 | 4.3 | 0.3 | 390 | 2.0 | 0.1 | 1220 | 0.6 | 0.04 | 60 | Selectivity Index (SI) (501mel; [1]): 3.0; Selectivity Index (SI) (501mel; [2]): 0.2; IC50 (MM200): 100 nM; IC50 (SK-MEL-147; SK-MEL-147, 24 h, SK-MEL-147, 24h treatment, MTT): 790 nM; IC50 (SK-MEL-147; SK-MEL-147, 48 h, SK-MEL-147, 48h treatment, MTT): 480 nM; IC50 (SK-MEL-147; [10]): 2480 nM; IC50 (SK-MEL-147; [11]): 1880 nM; IC50 (SK-MEL-147; [12]): 800 nM; IC50 (SK-MEL-28; SK-MEL-28, 24 h, SK-MEL-28, 24h treatment, MTT): 1390 nM; IC50 (SK-MEL-28; SK-MEL-28, 48 h, SK-MEL-28, 48h treatment, MTT): 2110 nM; IC50 (SK-MEL-28; [18]): 330 nM; IC50 (SK-MEL-28; [19]): 1150 nM; IC50 (SK-MEL-28; [20]): 590 nM; Selectivity Index (SI) (WM293A; [23]): 13.0; Selectivity Index (SI) (WM293A; [24]): 0.9; IC50 (MRC-5): 50 nM |
| N[C@H]1CCN(C(=O)CCc2ccc3c(=O)c4sc5c(=O)c6ccccc6c(=O)c5c4c(=O)c3c2)C1 [SQ5] | 1710 | 930 | 4.2 | 2.5 | 220 | 490 | 1.9 | 1.1 | 3.1 | 1.9 | 70 | 13.3 | 8.0 | 40 | 23.3 | 14.0 | 150 | 6.2 | 3.7 | 1650 | Selectivity Index (SI) (501mel; [1]): 0.5; Selectivity Index (SI) (501mel; [2]): 0.3; IC50 (MM200; 72 h): 300 nM; Selectivity Index (SI) (WM293A; [23]): 0.6; Selectivity Index (SI) (WM293A; [24]): 0.3; selectivity indices to SK-Mel cells in relation to non-tumor cell lines (melanoma cells): ≥ twofold; IC50 (MRC-5; [25]): 560 nM |
| NCCCCCCNC(=O)CCc1ccc2c(=O)c3sc4c(=O)c5ccccc5c(=O)c4c3c(=O)c2c1 [SQ4] | > 5000 | 1010 | 1.0 | 2.4 | 1020 | 1000 | 1.0 | 2.5 | 0.9 | 2.1 | 400 | 2.5 | 6.1 | 320 | 3.2 | 7.7 | 190 | 5.3 | 12.9 | 1750 | IC50 (MM200; 72 h): 1160 nM; Selectivity Index (SI) (WM293A; [23]): 0.6; Selectivity Index (SI) (WM293A; [24]): 1.4; selectivity indices to SK-Mel cells in relation to non-tumor cell lines (melanoma cells): ≥ twofold; IC50 (MRC-5; [25]): 2450 nM |
| O=C(O)CCc1ccc2c(=O)c3sc4c(=O)c5ccccc5c(=O)c4c3c(=O)c2c1 [SQ3] | 200 | 3500 | 3.4 | 1.4 | 1020 | 1900 | 1.8 | 0.8 | 2.4 | 1.0 | 260 | 13.5 | 5.5 | 110 | 31.8 | 13.0 | 240 | 14.6 | 6.0 | 1500 | Selectivity Index (SI) (501mel; [1]): 17.5; Selectivity Index (SI) (501mel; [2]): 7.2; IC50 (MM200; 72 h): 1430 nM; Selectivity Index (SI) (WM293A; [23]): 2.3; Selectivity Index (SI) (WM293A; [24]): 1.0; selectivity indices to SK-Mel cells in relation to non-tumor cell lines (melanoma cells): ≥ twofold; IC50 (MRC-5; [25]): 1430 nM |
| CO[C@H]1C[C@@H]2CC[C@@H](C)[C@@](O)(O2)C(=O)C(=O)N2CCCC[C@H]2C(=O)O[C@H]([C@H](C)C[C@@H]2CC[C@@H](O)[C@H](OC)C2)CC(=O)[C@H](C)/C=C(\C)[C@@H](O)[C@@H](OC)C(=O)[C@H](C)C[C@H](C)/C=C/C=C/C=C/1C [RAPAMYCIN, rapamycin, reference compound] | – | – | – | – | – | – | – | – | – | – | – | – | – | – | – | – | – | – | – | – | IC50 (SK-MEL-147; [10]): 39100 nM; IC50 (SK-MEL-147; [11]): 22800 nM; IC50 (SK-MEL-147; [12]): 17500 nM; IC50 (SK-MEL-28; [18]): 15600 nM; IC50 (SK-MEL-28; [19]): 31800 nM; IC50 (SK-MEL-28; [20]): 17800 nM |
